Test system: Aliivibrio fischeri
Test: Aliivibrio fischeri assay: inhibition of bacterial luminescence
Assay type: cell-based
Details: inhibition of bacterial luminescence vs untreated bacteria; 96-well plates; concentration series in DMSO/medium (2% v/v); 24 h incubation at 23 °C in the dark; saline BOSS medium (3% NaCl w/w); read-out: IC50 against the Gram-negative bacterium Aliivibrio fischeri
Source text: To our knowledge no biological screening of pure (−)-viridic acid or its analogues has been performed, and due to the potential of natural peptides and peptoids as antibacterial agents, it was decided to investigate their activity against the Gram-negative bacterium Aliivibrio fischeri. […] Although (−)-viridic acid (1) was isolated thirty years ago, this is the first unambiguous report concerning its biological activity. Based upon the results presented above, it seems that the configuration of the stereogenic center has almost no influence on the antibacterial effect of 1.
The Aliivibrio fischeri assay is based on the measurement of the inhibition of bacterial luminescence against a negative control. Bacteria were pregrown on a saline BOSS medium (3% NaCl w/w) whereby at a certain population density, bacterial luminescence will start. The bacterial suspension was diluted, distributed into 96-well microtiter plates (mtp) and the respective compounds were applied as a concentration series as solutions in DMSO/medium (2% v/v) and mixed. The luminescence of bacteria treated with the respective compounds was measured after 24 h incubation at 23 °C in the dark, in relation to controls of untreated bacteria.
1 Neves Filho, R. A. W.; Stark, S. S.; Morejon, M. C.; Westermann, B.;
3 Malkov, A. V.; Stoncius, S.; Mac Dougall, K. N.; Mariani, A.; McGeoch, G. D.; […]

SMILES | IC50
CC(C)C(C(=O)Nc1ccccc1C(=O)O)N(C)C(=O)CNC(=O)c1ccccc1N(C)C (racemic) [(±)-1, racemic viridic acid] | 38.4 ± 5.8 µM
CC(C)[C@@H](C(=O)Nc1ccccc1C(=O)O)N(C)C(=O)CNC(=O)c1ccccc1N(C)C [(−)-1, (−)-viridic acid] | 45 ± 4.4 µM

Reference: PMC3511043, “The multicomponent approach to N-methyl peptides: total synthesis of antibacterial (–)-viridic acid and analogues” (Beilstein Journal of Organic Chemistry, 2012)
